Experimental data published in patent publication US9663511B2, “Sphingosine 1-phosphate receptor antagonists” (ARROYO BIOSCIENCES, LLC, priority 2012, dated 2017).
“And” between values parts separate entries of the source, which are not always exact repeats. Identical values can stand only once. Like-named read-outs stand apart in the source and are kept apart here. Marks after values point to notes of the source that are not given here.

Assays:
[1] = biological target: S1P2 receptor (Homo sapiens (Human), UniProt O95136); assay: Antagonist assay (FLIPR TETRA, inhibition of reference agonist EC80) on S1P2; format: cell-based; settings: tested as the citrate salt
Method: (§1) Antagonist percentage inhibition determinations were obtained by assaying sample compounds and referencing the control (EC80) wells for each profiled (GPCR) which evaluated binding to S1P2 and S1P5 receptors. The samples were run using a single addition assay protocol. The protocol design is as follows.
(§2) Unless specified otherwise, the sample compounds were diluted in 100% anhydrous DMSO including all dilutions. The compounds were tested as the citrate salt (1 equivalent per molecule). If the sample compound is provided in a different solvent all master stock dilutions are performed in the specified solvent. All control wells contained identical solvent final concentrations as the sample compound wells.
(§3) The sample compounds were transferred from a master stock solution into a daughter plate that was used in the assay. Each sample compound was diluted into an assay buffer (1×HBSS with 20 mM HEPES, 2.5 mM Probenecid, and 0.4% Free Fatty Acid BSA) at an appropriate concentration to obtain final specified concentrations.
(§4) Using the EC80 values that were determined real-time, stimulated all pre-incubated sample compounds and reference antagonists (if applicable) were compared with the EC80 values of reference agonist. These were read for 180 seconds using the FLIPR^TETRA (This assay added reference agonist to respective wells-then fluorescences measurements were collected to calculate IC50 values). All plates were subjected to appropriate baseline corrections. Once baseline corrections were processed, maximum fluorescence values were exported and data manipulated to calculate percentage activation, percentage inhibition and Z′.

[2] = biological target: S1P5 receptor (Homo sapiens (Human), UniProt Q9H228); assay: Antagonist assay (FLIPR TETRA, inhibition of reference agonist EC80) on S1P5; format: cell-based; settings: tested as the citrate salt
Method: as §1, §2, §3, §4

[3] = Blood concentrations and pharmacokinetics after 1 mg/kg i.v. in mice; format: in vivo, mouse
Method: 1 mg/kg of the compound was injected by IV and blood was withdrawn at the times in table 1. The amount of starting compound was quantified by a standard curve using MS/MS determinations.

[4] = In vitro plasma protein binding; format: in vitro ADME, mouse; settings: mouse plasma, test concentration 5 nM
[5] = Microsomal intrinsic clearance; settings: mouse, microsomes, mouse microsomes, test conc. 1 μM

Sequence of S1P5 receptor (Q9H228 whole entry): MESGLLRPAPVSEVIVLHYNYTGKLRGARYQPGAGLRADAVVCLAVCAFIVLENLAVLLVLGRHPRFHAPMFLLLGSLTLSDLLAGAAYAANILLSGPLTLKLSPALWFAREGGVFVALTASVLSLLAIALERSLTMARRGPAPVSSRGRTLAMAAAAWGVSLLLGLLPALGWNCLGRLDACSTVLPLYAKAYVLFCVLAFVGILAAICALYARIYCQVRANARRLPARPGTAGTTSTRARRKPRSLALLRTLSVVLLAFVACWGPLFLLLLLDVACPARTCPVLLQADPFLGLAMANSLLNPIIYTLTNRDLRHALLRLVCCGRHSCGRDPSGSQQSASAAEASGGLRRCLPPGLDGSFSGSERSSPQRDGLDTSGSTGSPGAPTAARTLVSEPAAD
Sequence of S1P2 receptor (O95136 whole entry): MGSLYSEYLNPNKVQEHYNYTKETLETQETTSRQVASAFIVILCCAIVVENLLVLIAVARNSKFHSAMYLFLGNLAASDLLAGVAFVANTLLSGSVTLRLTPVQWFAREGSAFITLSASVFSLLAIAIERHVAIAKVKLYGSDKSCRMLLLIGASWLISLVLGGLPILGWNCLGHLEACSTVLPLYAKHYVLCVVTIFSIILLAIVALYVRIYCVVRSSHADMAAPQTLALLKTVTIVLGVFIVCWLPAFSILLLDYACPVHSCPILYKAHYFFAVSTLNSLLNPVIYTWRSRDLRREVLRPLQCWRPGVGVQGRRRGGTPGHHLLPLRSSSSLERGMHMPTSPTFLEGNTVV

In the case of `Cc1nn(C)c2nc(NNC(=O)Nc3cc(Cl)nc(Cl)c3)cc(C(C)C)c12` [JTE013, N-(1H-4-isopropyl-1,3-dimethylpyrazolo[3,4-b]pyridine-6-yl)amino-N′-(2,6-dichloropyridine-4-yl) urea], the IC50 [1] is reported as 11 nM, the IC50 [2] is reported as 1.3 nM and the AUC0-inf ([3]; mouse blood, individual mice) is reported as 88.2 ng·h/mL and 122 ng·h/mL. The “AUC0-inf Extrapolated” value ([3]; mouse blood, individual mice) was 6.50% and 2.89% and 12.1%, the AUC0-tlast ([3]; mouse blood, individual mice) was 85.6 ng·h/mL and 108 ng·h/mL and the AUMC0-inf ([3]; mouse blood, individual mice) was 153 h^2*ng/mL and 71.2 h^2*ng/mL and 652 h^2*ng/mL. For the same compound, the “AUMC0-inf Extrapolated” value ([3]; mouse blood, individual mice) was 68.6% and 39.9% and 88.0%, the AUMC0-tlast ([3]; mouse blood, individual mice) was 48.1 h^2*ng/mL and 42.8 h^2*ng/mL and 78.0 h^2*ng/mL and the C0 ([3]; mouse blood, individual mice) was 397 ng/mL and 536 ng/mL. For the same compound, the CL ([3]; mouse blood, individual mice) was 188 mL/min/kg and 136 mL/min/kg, the MRT0-inf ([3]; mouse blood, individual mice) was 1.40 h and 0.807 h and 5.33 h and the MRT0-tlast ([3]; mouse blood, individual mice) was 0.500 h and 0.725 h. The Terminal half-life ([3]; mouse blood, individual mice) was 6.11 h and 3.56 h and 18.7 h, the Vss ([3]; mouse blood, individual mice) was 12.8 L/kg and 9.16 L/kg and 43.6 L/kg and the “AUC0-inf Extrapolated, Mean S.D.” value ([3]; mouse blood, mean) was 7.15 ± 4.61%. The “AUMC0-inf Extrapolated, Mean S.D.” value ([3]; mouse blood, mean) was 65.5 ± 24.2%, the “AUMC0-inf, Mean S.D.” value ([3]; mouse blood, mean) was 292 ± 314 h^2*ng/mL and the “AUMC0-tlast, Mean S.D.” value ([3]; mouse blood, mean) was 56.3 ± 19.0 h^2*ng/mL. The “C0, Mean S.D.” value ([3]; mouse blood, mean) was 462 ± 70.1 ng/mL, the “Blood Concentrations” value ([3]; mouse, 5 min, individual mice, LLOQ = 1 ng/mL) was 231 ng/mL and 302 ng/mL and the “Blood Concentrations” value ([3]; mouse, 0.25 h, individual mice, LLOQ = 1 ng/mL) was 78.3 ng/mL and 95.8 ng/mL. For the same compound, the “Blood Concentrations” value ([3]; mouse, 0.5 h, individual mice, LLOQ = 1 ng/mL) was 33.8 ng/mL and 40.4 ng/mL, the “Blood Concentrations” value ([3]; mouse, 1 h, individual mice, LLOQ = 1 ng/mL) was 14.4 ng/mL and 13.4 ng/mL and the “Blood Concentrations” value ([3]; mouse, 2 h, individual mice, LLOQ = 1 ng/mL) was 3.16 ng/mL and 3.12 ng/mL. For the same compound, the “Blood Concentrations” value ([3]; mouse, 4 h, individual mice, LLOQ = 1 ng/mL) was 0.732^c ng/mL and 0.771^c ng/mL, the “Blood Concentrations” value ([3]; mouse, 6 h, individual mice, LLOQ = 1 ng/mL) was 0.496^c ng/mL and 0.643^c ng/mL and the “Blood Concentrations” value ([3]; mouse, 12 h, individual mice, LLOQ = 1 ng/mL) was “BLQ”. For the same compound, the “pharmacokinetics / blood levels following intravenous injection in mice (in words)” value ([3]; mouse, comparison between compounds) was “better than compound 2”, the AUC0-inf ([3]; mouse, in vivo, iv, 1 mg/kg, mouse blood, individual mice, read-out: AUC0-inf) was 109 ng·h/mL and the AUC(0-t) ([3]; mouse, in vivo, iv, 1 mg/kg, mouse blood, individual mice, read-out: AUC0-tlast) was 102 ng·h/mL. It also gave a C0 ([3]; mouse, in vivo, iv, 1 mg/kg, mouse blood, individual mice, read-out: C0) of 453 ng/mL, a clearance ([3]; mouse, in vivo, iv, 1 mg/kg, mouse blood, individual mice, read-out: CL (converted)) of 153 mL/min/kg and an MRT last ([3]; mouse, in vivo, iv, 1 mg/kg, mouse blood, individual mice, read-out: MRT0-tlast) of 0.471 h. It also gave an AUC0-inf ([3]; mouse, in vivo, iv, 1 mg/kg, mouse blood, mean, read-out: AUC0-inf, Mean S.D.) of 107 ± 17.2 ng·h/mL, an AUC(0-t) ([3]; mouse, in vivo, iv, 1 mg/kg, mouse blood, mean, read-out: AUC0-tlast, Mean S.D.) of 98.4 ± 11.4 ng·h/mL and a clearance ([3]; mouse, in vivo, iv, 1 mg/kg, mouse blood, mean, read-out: CL, Mean S.D. (converted)) of 159 mL/min/kg. The MRT inf ([3]; mouse, in vivo, iv, 1 mg/kg, mouse blood, mean, read-out: MRT0-inf, Mean S.D.) was 2.51 ± 2.46 h, the MRT last ([3]; mouse, in vivo, iv, 1 mg/kg, mouse blood, mean, read-out: MRT0-tlast, Mean S.D.) was 0.565 ± 0.139 h and the half-life ([3]; mouse, in vivo, iv, 1 mg/kg, mouse blood, mean, read-out: Terminal half-life, Mean S.D. (converted)) was 9.45 ± 8.09 h. It also gave a Vd ([3]; mouse, in vivo, iv, 1 mg/kg, mouse blood, mean, read-out: Vss, Mean S.D.) of 21.9 ± 18.9 L/kg, a concentration at 5 min ([3]; mouse, in vivo, iv, 1 mg/kg, mouse, 5 min, individual mice, LLOQ = 1 ng/mL, read-out: Blood Concentrations) of 282 ng/mL and a concentration at 5 min ([3]; mouse, in vivo, iv, 1 mg/kg, mouse, 5 min, mean of 3 mice, read-out: Blood Concentrations, Mean S.D.) of 272 ± 36.6 ng/mL. For the same compound, the concentration at 0.25 h ([3]; mouse, in vivo, iv, 1 mg/kg, mouse, 0.25 h, individual mice, LLOQ = 1 ng/mL, read-out: Blood Concentrations) was 109 ng/mL, the concentration at 0.25 h ([3]; mouse, in vivo, iv, 1 mg/kg, mouse, 0.25 h, mean of 3 mice, read-out: Blood Concentrations, Mean S.D.) was 94.4 ± 15.4 ng/mL and the concentration at 0.5 h ([3]; mouse, in vivo, iv, 1 mg/kg, mouse, 0.5 h, individual mice, LLOQ = 1 ng/mL, read-out: Blood Concentrations) was 44.4 ng/mL. It also gave a concentration at 0.5 h ([3]; mouse, in vivo, iv, 1 mg/kg, mouse, 0.5 h, mean of 3 mice, read-out: Blood Concentrations, Mean S.D.) of 39.5 ± 5.35 ng/mL, a concentration at 1 h ([3]; mouse, in vivo, iv, 1 mg/kg, mouse, 1 h, individual mice, LLOQ = 1 ng/mL, read-out: Blood Concentrations) of 11.8 ng/mL and a concentration at 1 h ([3]; mouse, in vivo, iv, 1 mg/kg, mouse, 1 h, mean of 3 mice, read-out: Blood Concentrations, Mean S.D.) of 13.2 ± 1.31 ng/mL. For the same compound, the concentration at 2 h ([3]; mouse, in vivo, iv, 1 mg/kg, mouse, 2 h, individual mice, LLOQ = 1 ng/mL, read-out: Blood Concentrations) was 2.72 ng/mL, the concentration at 2 h ([3]; mouse, in vivo, iv, 1 mg/kg, mouse, 2 h, mean of 3 mice, read-out: Blood Concentrations, Mean S.D.) was 3 ± 0.243 ng/mL and the concentration at 4 h ([3]; mouse, in vivo, iv, 1 mg/kg, mouse, 4 h, individual mice, LLOQ = 1 ng/mL, read-out: Blood Concentrations) was 1.01 ng/mL. The concentration at 4 h ([3]; mouse, in vivo, iv, 1 mg/kg, mouse, 4 h, mean (n = 2 for Cmpd-1), read-out: Blood Concentrations, Mean S.D.) was 0.838 ± 0.151 ng/mL, the concentration at 6 h ([3]; mouse, in vivo, iv, 1 mg/kg, mouse, 6 h, individual mice, LLOQ = 1 ng/mL, read-out: Blood Concentrations) was 0.805 ng/mL and the concentration at 6 h ([3]; mouse, in vivo, iv, 1 mg/kg, mouse, 6 h, mean (n = 2 for Cmpd-1), read-out: Blood Concentrations, Mean S.D.) was 0.648 ± 0.155 ng/mL. For the same compound, the concentration at 12 h ([3]; mouse, in vivo, iv, 1 mg/kg, mouse, 12 h, individual mice, LLOQ = 1 ng/mL, read-out: Blood Concentrations) was 0.547 ng/mL, the “mean fraction bound (%)” value [4] was 99.7% and the microsomal CLint at 1 μM ([5]; NADPH-dependent Clint (microsomal intrinsic clearance)) was 770 µL/min/mg. For the same compound, the half-life at 1 μM ([5]; NADPH-dependent T1/2 (half-life)) was 0.05 h, the microsomal CLint at 1 μM ([5]; NADPH-free Clint (microsomal intrinsic clearance)) was 22 µL/min/mg and the half-life at 1 μM ([5]; NADPH-free T1/2 (half-life)) was 1.75 h.
